Columns and labels:
[1] = molecular target: T1, Leukotriene C4 synthase (Cavia porcellus, UniProt A6XA80); type: tissue-based, Lung;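 further: enzyme inhibition assay of leukotriene C4 synthase, using LTA4 as the substrate; in other assays of this panel Not Active means under 50% inhibition at 10 µM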
T1 sequence (A6XA80 whole entry): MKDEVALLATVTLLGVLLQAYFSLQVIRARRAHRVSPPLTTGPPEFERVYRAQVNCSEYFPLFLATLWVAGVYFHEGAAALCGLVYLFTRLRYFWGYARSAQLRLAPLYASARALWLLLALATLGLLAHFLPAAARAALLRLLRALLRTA

[2] = molecular target: T2, Cytochrome P450 2A6 (Homo sapiens, UniProt P11509); details: bti-tn-5b1-4; further: in other assays of this panel Not Active means under 50% inhibition at 10 µM
T2 sequence (P11509 whole entry): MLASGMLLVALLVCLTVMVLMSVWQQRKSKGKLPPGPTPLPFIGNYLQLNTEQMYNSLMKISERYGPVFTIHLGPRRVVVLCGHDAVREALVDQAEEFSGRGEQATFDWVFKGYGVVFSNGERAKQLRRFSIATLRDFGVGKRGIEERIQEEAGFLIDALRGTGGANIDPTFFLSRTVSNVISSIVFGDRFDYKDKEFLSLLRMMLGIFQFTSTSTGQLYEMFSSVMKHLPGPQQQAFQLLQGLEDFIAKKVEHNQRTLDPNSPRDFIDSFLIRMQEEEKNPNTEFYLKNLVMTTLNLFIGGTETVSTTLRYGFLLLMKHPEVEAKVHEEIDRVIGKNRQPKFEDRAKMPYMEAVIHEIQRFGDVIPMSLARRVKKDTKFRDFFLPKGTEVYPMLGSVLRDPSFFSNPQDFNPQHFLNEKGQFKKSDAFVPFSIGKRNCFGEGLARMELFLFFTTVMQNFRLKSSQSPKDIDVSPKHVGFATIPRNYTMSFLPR

[3] = DRUGMATRIX: Nicotinic Acetylcholine radioligand binding (ligand: [125I] Epibatidine); type: cell membranes, Membrane; details: imr-32; Not Active = under 50% inhibition at 10 µM
[4] = molecular target: Mitogen-activated protein kinase 1 (Homo sapiens, UniProt P28482); test: DRUGMATRIX: Protein Serine/Threonine Kinase, ERK2 enzyme inhibition (substrate: Myelin Basic Protein); design: species or system Escherichia coli; details: Not Active = under 50% inhibition at 10 µM
[5] = DRUGMATRIX: Atrial Natriuretic Factor (ANF) radioligand binding (ligand: [125I] ANF (rat)); type: cell membranes, Cavia porcellus, Dunkin-Hartley, Adrenal gland, Membrane; details: Not Active = under 50% inhibition at 10 µM
[6] = molecular target: T3, Amine oxidase [flavin-containing] A (Homo sapiens, UniProt P21397); test: DRUGMATRIX: Monoamine Oxidase MAO-A enzyme inhibition (substrate: Kynuramine); design: species or system BTI-TN-5B1-4; details: bti-tn-5b1-4; Not Active = under 50% inhibition at 10 µM
T3 sequence (P21397 whole entry): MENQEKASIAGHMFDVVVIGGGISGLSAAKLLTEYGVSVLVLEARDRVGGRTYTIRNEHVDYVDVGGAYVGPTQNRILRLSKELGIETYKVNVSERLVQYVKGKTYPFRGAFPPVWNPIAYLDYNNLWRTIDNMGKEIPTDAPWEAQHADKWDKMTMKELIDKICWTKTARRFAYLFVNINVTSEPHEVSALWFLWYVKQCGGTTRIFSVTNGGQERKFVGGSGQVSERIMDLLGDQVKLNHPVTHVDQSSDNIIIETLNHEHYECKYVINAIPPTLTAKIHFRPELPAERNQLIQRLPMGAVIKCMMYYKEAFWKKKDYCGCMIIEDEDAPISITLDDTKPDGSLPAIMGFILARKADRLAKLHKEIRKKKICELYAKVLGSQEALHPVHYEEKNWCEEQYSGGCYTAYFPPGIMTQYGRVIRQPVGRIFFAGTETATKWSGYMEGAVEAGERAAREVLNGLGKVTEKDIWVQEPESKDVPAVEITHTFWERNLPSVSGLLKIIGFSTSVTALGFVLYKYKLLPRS

[7] = molecular target: Vascular endothelial growth factor receptor 1 (Homo sapiens, UniProt P17948); type: cell-based; details: huvec; further: in other assays of this panel Not Active means under 50% inhibition at 10 µM
[8] = molecular target: T4, Vasoactive intestinal polypeptide receptor 1 (Homo sapiens, UniProt P32241); type: cell membranes, Membrane; details: ht-29; further: in other assays of this panel Not Active means under 50% inhibition at 10 µM
T4 sequence (P32241 whole entry): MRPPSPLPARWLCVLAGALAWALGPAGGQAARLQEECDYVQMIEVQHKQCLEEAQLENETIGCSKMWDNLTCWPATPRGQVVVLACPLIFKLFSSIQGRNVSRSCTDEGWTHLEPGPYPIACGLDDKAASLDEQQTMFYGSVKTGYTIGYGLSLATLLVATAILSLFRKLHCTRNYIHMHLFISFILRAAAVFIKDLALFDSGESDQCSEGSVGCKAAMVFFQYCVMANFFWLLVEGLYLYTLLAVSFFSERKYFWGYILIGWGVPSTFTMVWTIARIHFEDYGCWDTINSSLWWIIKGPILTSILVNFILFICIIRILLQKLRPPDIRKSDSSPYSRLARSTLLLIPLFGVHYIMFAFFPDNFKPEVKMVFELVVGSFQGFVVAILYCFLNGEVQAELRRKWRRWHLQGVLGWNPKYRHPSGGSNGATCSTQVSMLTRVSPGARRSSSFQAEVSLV

[9] = DRUGMATRIX: GABAA, Muscimol, Central radioligand binding (ligand: [3H] Muscimol); type: cell membranes, Rattus norvegicus, Wistar, Brain, Membrane; details: Not Active = under 50% inhibition at 10 µM

Chain of Vascular endothelial growth factor receptor 1 (P17948 whole entry): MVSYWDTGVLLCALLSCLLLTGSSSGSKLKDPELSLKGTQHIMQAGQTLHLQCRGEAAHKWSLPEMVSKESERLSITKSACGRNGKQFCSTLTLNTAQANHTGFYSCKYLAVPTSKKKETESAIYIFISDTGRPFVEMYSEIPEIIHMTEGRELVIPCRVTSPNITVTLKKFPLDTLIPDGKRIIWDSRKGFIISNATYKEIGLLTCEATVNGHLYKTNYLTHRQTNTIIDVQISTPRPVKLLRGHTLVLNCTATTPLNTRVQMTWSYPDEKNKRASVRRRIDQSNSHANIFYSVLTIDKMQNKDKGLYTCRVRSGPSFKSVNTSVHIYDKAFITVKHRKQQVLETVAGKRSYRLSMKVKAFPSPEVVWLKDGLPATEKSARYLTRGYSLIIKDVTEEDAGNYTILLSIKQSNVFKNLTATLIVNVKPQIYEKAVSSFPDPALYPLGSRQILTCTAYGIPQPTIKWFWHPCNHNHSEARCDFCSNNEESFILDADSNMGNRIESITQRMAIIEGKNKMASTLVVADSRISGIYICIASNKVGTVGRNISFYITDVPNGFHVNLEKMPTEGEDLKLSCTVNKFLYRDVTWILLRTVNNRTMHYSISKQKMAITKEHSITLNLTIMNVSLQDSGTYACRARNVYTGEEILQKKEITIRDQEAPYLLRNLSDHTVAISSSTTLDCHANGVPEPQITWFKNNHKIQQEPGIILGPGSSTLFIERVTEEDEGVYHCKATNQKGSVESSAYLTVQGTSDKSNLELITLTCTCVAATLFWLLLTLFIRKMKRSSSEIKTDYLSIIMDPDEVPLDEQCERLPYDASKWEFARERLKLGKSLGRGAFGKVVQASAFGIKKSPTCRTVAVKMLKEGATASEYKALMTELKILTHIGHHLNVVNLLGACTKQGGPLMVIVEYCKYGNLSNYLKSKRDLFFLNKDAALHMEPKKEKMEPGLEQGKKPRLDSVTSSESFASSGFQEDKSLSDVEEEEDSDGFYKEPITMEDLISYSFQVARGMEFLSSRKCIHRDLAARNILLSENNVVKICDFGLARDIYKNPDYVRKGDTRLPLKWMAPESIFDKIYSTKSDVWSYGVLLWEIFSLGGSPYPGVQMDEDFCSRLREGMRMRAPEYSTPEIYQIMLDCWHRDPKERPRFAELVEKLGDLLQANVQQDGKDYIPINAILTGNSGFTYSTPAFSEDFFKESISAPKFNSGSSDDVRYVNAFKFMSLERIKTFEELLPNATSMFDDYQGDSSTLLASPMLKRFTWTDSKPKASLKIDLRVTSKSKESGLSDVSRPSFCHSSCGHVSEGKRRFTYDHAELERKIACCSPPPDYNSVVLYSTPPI
Chain of Mitogen-activated protein kinase 1 (P28482 whole entry): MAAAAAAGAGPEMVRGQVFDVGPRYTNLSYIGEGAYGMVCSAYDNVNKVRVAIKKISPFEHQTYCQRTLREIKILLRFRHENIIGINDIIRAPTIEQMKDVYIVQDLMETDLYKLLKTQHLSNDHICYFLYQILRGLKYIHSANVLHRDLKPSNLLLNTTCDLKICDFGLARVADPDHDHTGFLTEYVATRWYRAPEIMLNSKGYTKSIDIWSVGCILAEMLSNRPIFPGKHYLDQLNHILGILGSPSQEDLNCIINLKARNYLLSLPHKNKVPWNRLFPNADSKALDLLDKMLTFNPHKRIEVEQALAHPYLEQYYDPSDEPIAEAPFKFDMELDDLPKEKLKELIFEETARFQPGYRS

O=NN(CCCl)C(=O)NC1CCCCC1 [LOMUSTINE]
Not Active: IC50 [1] | IC50 [2] | Ki [2] | IC50 [3] | Ki [3] | IC50 [4] | IC50 [5] | Ki [5] | IC50 [6] | IC50 [7] | IC50 [8] | IC50 [9] | Ki [9]

CCOC(=O)N1CCC(=C2c3ccc(Cl)cc3CCc3cccnc32)CC1 [LORATADINE]
Not Active: IC50 [1] | IC50 [2] | Ki [2] | IC50 [3] | Ki [3] | IC50 [4] | IC50 [5] | Ki [5] | IC50 [6] | IC50 [7] | IC50 [8] | IC50 [9] | Ki [9]

Cn1ccnc1S [METHIMAZOLE]
Not Active: IC50 [1] | IC50 [2] | Ki [2] | IC50 [3] | Ki [3] | IC50 [4] | IC50 [5] | Ki [5] | IC50 [6] | IC50 [7] | IC50 [8] | IC50 [9] | Ki [9]

CC[C@@H](CO)NC(=O)[C@@H]1C=C2c3cccc4[nH]cc(c34)C[C@H]2N(C)C1 [METHYLERGONOVINE]
Not Active: IC50 [1] | IC50 [2] | Ki [2] | IC50 [3] | Ki [3] | IC50 [4] | IC50 [5] | Ki [5] | IC50 [6] | IC50 [7] | IC50 [8] | IC50 [9] | Ki [9]

COc1nc(C)nc(Cl)c1NC1=NCCN1 [MOXONIDINE]
Not Active: IC50 [1] | IC50 [2] | Ki [2] | IC50 [3] | Ki [3] | IC50 [4] | IC50 [5] | Ki [5] | IC50 [6] | IC50 [7] | IC50 [8] | IC50 [9] | Ki [9]

COc1c(C)c2c(c(O)c1C/C=C(\C)CCC(=O)O)C(=O)OC2 [MYCOPHENOLIC ACID]
Not Active: IC50 [1] | IC50 [2] | Ki [2] | IC50 [3] | Ki [3] | IC50 [4] | IC50 [5] | Ki [5] | IC50 [6] | IC50 [7] | IC50 [8] | IC50 [9] | Ki [9]

O=c1ncn2nc(Sc3ccc(F)cc3F)ccc2c1-c1c(Cl)cccc1Cl [NEFLAMAPIMOD]
Not Active: IC50 [1] | IC50 [2] | Ki [2] | IC50 [3] | Ki [3] | IC50 [4] | IC50 [5] | Ki [5] | IC50 [6] | IC50 [7] | IC50 [8] | IC50 [9] | Ki [9]

CO[C@H]1/C=C/O[C@@]2(C)Oc3c(C)c(O)c4c(O)c(c(/C=N/N5CCN(C)CC5)c(O)c4c3C2=O)NC(=O)/C(C)=C\C=C\[C@H](C)[C@H](O)[C@@H](C)[C@@H](O)[C@@H](C)[C@H](OC(C)=O)[C@@H]1C [RIFAMPIN]
Not Active: IC50 [1] | IC50 [2] | Ki [2] | IC50 [3] | Ki [3] | IC50 [4] | IC50 [5] | Ki [5] | IC50 [6] | IC50 [7] | IC50 [8] | IC50 [9] | Ki [9]

C=CCC1(C(C)CCC)C(=O)NC(=O)NC1=O (stereo not drawn) [SECOBARBITAL]
Not Active: IC50 [1] | IC50 [2] | Ki [2] | IC50 [3] | Ki [3] | IC50 [4] | IC50 [5] | Ki [5] | IC50 [6] | IC50 [7] | IC50 [8] | IC50 [9] | Ki [9]

C[C@@H]1CN(c2c(F)c(N)c3c(=O)c(C(=O)O)cn(C4CC4)c3c2F)C[C@H](C)N1 [SPARFLOXACIN]
Not Active: IC50 [1] | IC50 [2] | Ki [2] | IC50 [3] | Ki [3] | IC50 [4] | IC50 [5] | Ki [5] | IC50 [6] | IC50 [7] | IC50 [8] | IC50 [9] | Ki [9]

Cc1noc(NS(=O)(=O)c2ccc(N)cc2)c1C [SULFISOXAZOLE]
Not Active: IC50 [1] | IC50 [2] | Ki [2] | IC50 [3] | Ki [3] | IC50 [4] | IC50 [5] | Ki [5] | IC50 [6] | IC50 [7] | IC50 [8] | IC50 [9] | Ki [9]

— ChEMBL document CHEMBL1909046, “DrugMatrix in vitro pharmacology data”
